Consider 26 compounds from patent publication US9399626B2, “2-thiopyrimidinones” (Pfizer Inc., priority 2011, dated 2016).

Counter-ions that a name gives are not always drawn.

T1 sequence (P05164 279-745 limits assumed): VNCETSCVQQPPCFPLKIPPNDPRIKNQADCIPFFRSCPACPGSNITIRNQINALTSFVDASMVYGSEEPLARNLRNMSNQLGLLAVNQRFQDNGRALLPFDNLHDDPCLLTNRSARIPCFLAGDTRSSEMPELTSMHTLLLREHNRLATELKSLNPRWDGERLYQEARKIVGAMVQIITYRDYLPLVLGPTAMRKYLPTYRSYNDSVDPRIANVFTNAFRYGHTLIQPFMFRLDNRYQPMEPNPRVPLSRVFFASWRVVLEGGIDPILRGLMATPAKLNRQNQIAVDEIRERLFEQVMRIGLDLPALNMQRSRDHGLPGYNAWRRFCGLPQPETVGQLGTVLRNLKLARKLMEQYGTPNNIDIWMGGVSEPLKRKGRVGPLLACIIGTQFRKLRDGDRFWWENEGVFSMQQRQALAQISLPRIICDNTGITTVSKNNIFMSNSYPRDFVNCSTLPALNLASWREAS
T1 sequence (P05164 165-273 limits assumed): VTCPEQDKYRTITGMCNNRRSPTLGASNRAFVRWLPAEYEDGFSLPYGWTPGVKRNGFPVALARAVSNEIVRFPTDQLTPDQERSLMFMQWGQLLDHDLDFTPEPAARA

One test has as its target T1, MPO (purified from human polynuclear leukocytes) (Homo sapiens, UniProt P05164).
T1 construct: purified from human polynuclear leukocytes; purchased Calbiochem/EMD Biosciences; host or cells: human polynuclear leukocytes (natural source)
The test is described as follows: MPO Amplex Red Activity Assay. It is filed as biochemical. The note with it: Table 1, 2 μM H2O2, pH 7.4. The protocol: MPO Amplex Red Activity Assay.
MPO peroxidase activity was measured by monitoring the formation of resorufin generated from the oxidation of Amplex Red (10-Acetyl-3,7-dihydroxyphenoxazine) (Invitrogen, Carlsbad, Calif.) by MPO (Gomes, Fernandes et al. 2005). Assay mixtures (100 μL total volume) contained 50 mM NaPi pH 7.4, 150 mM NaCl, 1 mM DTPA (diethylenetriaminepentaacetic acid), 2% DMSO, 2 μM H2O2, 30 μM Amplex Red and the reaction was initiated by the addition of […] (purified from human polynuclear leukocytes and purchased from Calbiochem/EMD Biosciences, Gibbstown, N.J.). All assays were performed in 96-well, half-area, black, nonbinding surface, polystyrene plates (Corning) and the production of resorufin (excitation 530 nm, emission 580 nm) was monitored every 20 sec on a Spectramax M2 Microplate Spectrophotometer (Molecular Devices, Palo Alto, Calif.) equipped with Softmax Pro software (Molecular Devices, Palo Alto, Calif.). Reactions to determine the background reaction rate consisted of all assay components and 4 μL of 500 unit/mL bovine catalase (Sigma) in 50 mM KPi pH 7.0. The background rate was subtracted from each reaction progress curve. All data was analyzed using non-linear regression analysis in Microsoft Excel and Kaleidagraph (Synergy Software).
To determine inhibitor potency (kinact/KI) against MPO, the first 600 sec of the reaction progress curves were fit to equation 1, where Vo is the initial rate in RFU/sec and t is time in seconds, to obtain the first order rate constant for enzyme inactivation (kobs) at each inhibitor concentration.
[formula] Equation 1 is a variation of the standard equation for slow binding inhibition where the steady state velocity (Vs) is set to zero. Each kobs value was corrected for auto-inactivation of the enzyme by subtracting the kobs value for the uninhibited reaction. The corrected kobs values were then plotted versus inhibitor concentration ([I]) and fit to equation 2
[formula] where kinact is the maximal rate of inactivation and KI is the inhibitor concentration that yields half the rate of maximal inactivation (Copeland 2005).
Table 1 and (1A) below provides the myeloperoxidase inhibitory activity for the Examples below in accordance with the above-described assay.
As to `COc1cc(-c2cc(=O)[nH]c(=S)n2CCO)c(OC)cc1Cl` [Example 206, 6-(4-chloro-2,5-dimethoxyphenyl)-1-(2-hydroxyethyl)-2-thioxo-2,3-dihydropyrimidin-4(1H)-one], the “MPO kinact/Ki” value is 7690 1/s per M.
Still for that read-out and setting: next, `COc1ccc(-c2cc(=O)[nH]c(=S)n2CCO)c(OC)c1` [Example 3, 6-(2,4-Dimethoxyphenyl)-1-(2-hydroxyethyl)-2-thioxo-2,3-dihydropyrimidin-4(1H)-one]: 29300 1/s per M; `COc1ccc(-c2cc(=O)[nH]c(=S)n2CC(C)(C)O)c(OC)c1` [Example 194, 6-(2,4-dimethoxyphenyl)-1-(2-hydroxy-2-methylpropyl)-2-thioxo-2,3-dihydropyrimidin-4(1H)-one]: 2560 1/s per M; `COCCn1c(-c2nc3ccccc3s2)cc(=O)[nH]c1=S` [Example 75, 6-(1,3-benzothiazol-2-yl)-1-(2-methoxyethyl)-2-thioxo-2,3-dihydropyrimidin-4(1H)-one]: 2040 1/s per M.
In the case of `COCCn1c(-c2ccccc2C)cc(=O)[nH]c1=S` [Example 284, 1-(2-methoxyethyl)-6-(2-methylphenyl)-2-thioxo-2,3-dihydropyrimidin-4(1H)-one], the “MPO kinact/Ki” value is on record as 1470 1/s per M.
Turning to `COc1ncc(C)cc1-c1cc(=O)[nH]c(=S)n1CCN` [Example 19, 1-(2-aminoethyl)-6-(2-methoxy-5-methylpyridin-3-yl)-2-thioxo-2(3-dihydropyrimidin-4(1H)-one trifluoroacetate], the “MPO kinact/Ki” value is recorded as 1960 1/s per M.
Same read-out and setting: in the case of `COc1ccc(-c2cc(=O)[nH]c(=S)n2CCCCCN)c(OC)c1` [Example 218, 1-(5-aminopentyl)-6-(2,4-dimethoxyphenyl)-2-thioxo-2,3-dihydropyrimidin-4(1H)-one hydrochloride] it was 14100 1/s per M.
Consider `COc1ccc(-c2cc(=O)[nH]c(=S)n2CCNC(=O)OC(C)(C)C)c(OC)c1` [Example 5, tert-butyl 2-(6-(2,4-dimethoxyphenyl)-4-oxo-2-thioxo-3,4-dihydropyrimidin-1(2H)-yl)ethylcarbamate], for which the “MPO kinact/Ki” value was 1280 1/s per M.
As for `COc1ncc(Cl)cc1-c1cc(=O)[nH]c(=S)n1CCCN` [Example 93, 1-(3-aminopropyl)-6-(5-chloro-2-methoxypyridin-3-yl)-2-thioxo-2,3-dihydropyrimidin-4(1H)-one hydrochloride], the “MPO kinact/Ki” value was 5120 1/s per M.
Turning to `COc1ccc(-c2cc(=O)[nH]c(=S)n2CCN2CCOCC2)c(OC)c1` [Example 251, 6-(2,4-dimethoxyphenyl)-1-(2-morpholin-4-ylethyl)-2-thioxo-2,3-dihydropyrimidin-4(1H)-one], the “MPO kinact/Ki” value is recorded as 68 1/s per M.
As to `CCOc1ccccc1-c1cc(=O)[nH]c(=S)n1CCOC(C)C` [Example 104, 6-(2-ethoxyphenyl)-1-(2-isopropoxyethyl)-2-thioxo-2,3-dihydropyrimidin-4(1H)-one], the “MPO kinact/Ki” value is 1210 1/s per M.
`COCCn1c(-c2cc3ccccc3s2)cc(=O)[nH]c1=S` [Example 323, 6-(1-benzothien-2-yl)-1-(2-methoxyethyl)-2-thioxo-2,3-dihydropyrimidin-4(1H)-one]: the “MPO kinact/Ki” value is 10200 1/s per M.
The same measure, in the same setting: in the case of `NC(=O)Cn1c(-c2cccc3ccoc23)cc(=O)[nH]c1=S` [Example 31, 2-[6-(1-benzofuran-7-yl)-4-oxo-2-thioxo-3,4-dihydropyrimidin-1(2H)-yl]acetamide] it was 7680 1/s per M.
Still for that read-out and setting: next, `C=CCn1c(-c2ccc(OC)cc2OC)cc(=O)[nH]c1=S` [Example 266, 1-allyl-6-(2,4-dimethoxyphenyl)-2-thioxo-2,3-dihydropyrimidin-4(1H)-one]: 604 1/s per M; `COc1ccc(-c2cc(=O)[nH]c(=S)n2Cc2ccccc2)c(OC)c1` [Example 228, 1-benzyl-6-(2,4-dimethoxyphenyl)-2-thioxo-2,3-dihydropyrimidin-4(1H)-one]: 615 1/s per M; `COCCn1c(-c2cc(OC)ccc2OC)cc(=O)[nH]c1=S` [Example 9, 6-(2,5-dimethoxyphenyl)-1-(2-methoxyethyl)-2-thioxo-2,3-dihydropyrimidin-4(1H)-one]: 15000 1/s per M.
Turning to `COc1cc(OC)c(-c2cc(=O)[nH]c(=S)n2CCCN=C(N)N)cc1OC` [Example 141, 2-{3-[4-oxo-2-thioxo-6-(2,4,5-trimethoxyphenyl)-3,4-dihydropyrimidin-1(2H)-yl]propyl} guanidine trifluoroacetate], the “MPO kinact/Ki” value is listed as 10500 1/s per M.
Turning to `COCCn1c(-c2ccc(C)cc2)cc(=O)[nH]c1=S` [Example 285, 1-(2-methoxyethyl)-6-(4-methylphenyl)-2-thioxo-2,3-dihydropyrimidin-4(1H)-one], the “MPO kinact/Ki” value is 1750 1/s per M.
Consider `COCCn1c(-c2ccc(OC)nc2)cc(=O)[nH]c1=S` [Example 295, 1-(2-methoxyethyl)-6-(6-methoxypyridin-3-yl)-2-thioxo-2,3-dihydropyrimidin-4(1H)-one], for which the “MPO kinact/Ki” value was 793 1/s per M.
Same read-out and setting: next, `COc1ccc(-c2cc(=O)[nH]c(=S)n2C[C@@H]2CCCNC2)c(OC)c1` [Example 151, 6-(2,4-dimethoxyphenyl)-1-[(3R)-piperidin-3-ylmethyl]-2-thioxo-2,3-dihydropyrimidin-4(1H)-one hydrochloride]: 3740 1/s per M.

Still in this test, the particulars now being: Table 1A, 2 μM H2O2, pH 7.4.
As to `CNCCN(C)C(=O)Cn1c(-c2ccc(OC)cc2OC)cc(=O)[nH]c1=S` [Example 400, 2-[6-(2,4-dimethoxyphenyl)-4-oxo-2-thioxo-3,4-dihydropyrimidin-1(2H)-yl]-N-methyl-N-[2-(methylamino)ethyl]acetamide], the “MPO kinact/Ki” value was 2650 1/s per M.
In the case of `COc1ccc(F)cc1-c1cc(=O)[nH]c(=S)n1CCCNC(=N)N1CC(F)(F)C1` [Example 351, 3,3-Difluoro-N-{3-[6-(5-fluoro-2-methoxyphenyl)-4-oxo-2-thioxo-3,4-dihydropyrimidin-1(2H)-yl]propyl}azetidine-1-carboximidamide], the “MPO kinact/Ki” value was 7870 1/s per M.
Consider `NC(=O)Cn1c(-c2cc(Cl)ccc2OCCO)cc(=O)[nH]c1=S` [Example 426, 2-{6-[5-chloro-2-(2-hydroxyethoxy)phenyl]-4-oxo-2-thioxo-3,4-dihydropyrimidin-1(2H)-yl}acetamide], for which the “MPO kinact/Ki” value is on record as 4410 1/s per M.
In the case of `COc1cc(C)ccc1-c1cc(=O)[nH]c(=S)n1CC(N)=O` [Example 418, 2-[6-(2-methoxy-4-methylphenyl)-4-oxo-2-thioxo-3,4-dihydropyrimidin-1(2H)-yl]acetamide], the “MPO kinact/Ki” value is given as 11500 1/s per M.
Same read-out and setting: next, `COc1ccc(-c2cc(=O)[nH]c(=S)n2CCNCCO)c(OC)c1` [Example 383, 6-(2,4-dimethoxyphenyl)-1-{2-[(2-hydroxyethyl)amino]ethyl}-2-thioxo-2,3-dihydropyrimidin-4(1H)-one]: 5230 1/s per M; `COc1ccc(-c2cc(=O)[nH]c(=S)n2CCCNC(=N)N)c(OCCO)c1` [Example 403, 1-(3-{6-[2-(2-hydroxyethoxy)-4-methoxyphenyl]-4-oxo-2-thioxo-3,4-dihydropyrimidin-1(2H)-yl}propyl)guanidine]: 13300 1/s per M.
